Measurements from US9446122B2, “Use of GK-1 peptide expressed on M13 filamentous phage as pharmaceutical ingredient to enhance the efficiency of the immune response induced by vaccine or pathogen antigens” (UNIVERSIDAD NACIONAL AUTONOMA DE MEXICO, priority 2011, dated 2016).

Experiments:
[1] = system: immune response elicited by intranasally administered influenza vaccine; assay: Serum IgG after intranasal immunization, FGK-1 versus synthetic GK-1 (Example 5); type: in vivo, female BALB/cAnN mice
Description: The following treatment schedules were administered to five-mouse groups:
(§1) Influenza vaccine was administered at a dose of 1 μg/mouse [A/New Caledonia/20/99(H1N1) strain, A/Panama/2007/99(H3N2) strain (analog to A/Moscow/10/99 strain), and B/Victoria/504/2000 strain (analog to B/Sichuan/379/99 strain)]. FLUZONE® vaccine for the flu season 2004-2005, containing 45 μg of hemagglutinin HA per 0.5 ml-dose, was used.
(§2) Synthetic GK-1 peptide was used at its optimal dose (Segura-Velźquez et al. 2006), in a 10 μg/mouse concentration.
Mice were administered intranasally one single dose of each immunogen, and the induced response was evaluated in serum and bronchoalveolar lavages in different times after immunization, namely 21 and 45 days. Sera were obtained from peripheral blood, centrifuged at 5,000 rpm by 12 min, and aliquots were frozen until analysis. Bronchoalveolar lavages were obtained by performing intratracheal lavages with 300 μl of saline solution 45 days after immunization.

[2] = system: immune response elicited by influenza vaccine; assay: Serum IgG after subcutaneous immunization, FGK-1 versus synthetic GK-1 (Example 4); type: in vivo, female BALB/cAnN mice; settings: younger mice
Description: The following treatment schedules were assessed for five-mouse groups:
as §1, §2
Mice received a single dose of each immunogen by subcutaneous route at the tail base, and the induced response was evaluated in serum 21 days after immunization. Sera were obtained from peripheral blood, centrifuged at 5,000 rpm by 12 min, and aliquots were frozen until analysis.

Substance: G-Y-Y-Y-P-S-D-P-N-T-F-Y-A-P-P-Y-S-A (GYYYPSDPNTFYAPPYSA) [synthetic GK-1 peptide, 18-amino acid peptide derived from a Taenia solium cysticerci cDNA library]
- potentiation of influenza vaccine by intranasal administration [1]: does not potentiate the vaccine
- antibody levels versus vaccine alone ([2]; co-administered with influenza vaccine): does not increase antibody levels
- antibody response versus influenza vaccine alone ([2]; subcutaneous, 21 days): slightly higher antibody response
